Assay results as given in patent US10106571B2, “HCV polymerase inhibitors” (priority 2013, dated 2018).
pEC50, pIC50: −log10 of the molar value. Read-outs that look alike come from different tables or passages of the source.

Legend:
[1] = system: HCV type 1b replicon (Huh-7 luc/neo, Huh-Luc); assay: Replicon assay, Huh-Luc cells with HCV type 1b replicon (stable), luciferase readout; format: cell-based
From the text: The compounds of formula I may be examined for activity in the inhibition of HCV RNA replication in a cellular assay aimed at identifying compounds that inhibit a HCV functional cellular replicating cell line, also known as HCV replicons. A suitable cellular assay is based on a bicistronic expression construct, as described by Lohmann et al. (1999), Science vol. 285 pp. 110-113 with modifications described by Krieger et al. (2001), Journal of Virology 75: 4614-4624, in a multi-target screening strategy.
The assay utilizes the stably transfected cell line Huh-7 luc/neo (hereafter referred to as Huh-Luc). This cell line harbors an RNA encoding a bicistronic expression construct comprising the wild type NS3-NS5B regions of HCV type 1b translated from an Internal Ribosome Entry Site (IRES) from encephalomyocarditis virus (EMCV), preceded by a reporter portion (FfL-luciferase), and a selectable marker portion (neo^R, neomycine phosphotransferase). The construct is bordered by 5′ and 3′ NTRs (non-translated regions) from HCV type 1b. Continued culture of the replicon cells in the presence of G418 (neo^R) is dependent on the replication of the HCV RNA. The stably transfected replicon cells that express HCV RNA, which replicates autonomously and to high levels, encoding inter alia luciferase, are used for screening the antiviral compounds.
The replicon cells are plated in 384 well plates in the presence of the test and control compounds which are added in various concentrations. Following an incubation of three days, HCV replication is measured by assaying luciferase activity (using standard luciferase assay substrates and reagents and a Perkin Elmer ViewLux™ ultraHTS microplate imager). Replicon cells in the control cultures have high luciferase expression in the absence of any inhibitor. The inhibitory activity of a compound on luciferase activity is monitored on the Huh-Luc cells, enabling a dose-response curve for each test compound. EC50 values are then calculated, which value represents the amount of the compound required to decrease the level of detected luciferase activity by 50%, or more specifically, the ability of the genetically linked HCV replicon RNA to replicate.

HCV GT3a = assay: Genotype 3a transient replicon assay (Kylefjord et al.); format: cell-based; details: Hepatitis C virus
From the text: (§1) The antiviral activity of commercially available sofosbuvir and the compound of Example 2 were compared in a genotype 3a transient replicon assay described in Kylefjord et al., J Virol. Methods 2014 195:156-63.
(§2) The compound of Example 2 was further evaluated to assess the antiviral activity against genotypes 1-6 of HCV, both wild type and a number of clinically relevant mutant strains. The result of the evaluation together with the average EC50 of the genotypes and the corresponding values for sofosbuvir are summarised in Tables 2 and 3.

HCV GT3a S282T = assay: Genotype 3a transient replicon bearing the S282T mutation; format: cell-based; details: for pEC50: Hepatitis C virus; for FC vs WT, HCV GT3a* S282T: fold change of EC50 vs wild type
Method: as §1
(§3) Similarly, the L159F/L320F double mutant generated by exposure to the nucleoside mericitabine and conferring cross resistance to sofosbuvir (Tong et al 2013 J. Infect. Dis., 209 (5), 668-75) was prepared in a genotype 3a transient replicon as described above in Kylefjord et al. ibid.
as §2

HCV GT3a L159F/L320F = assay: Genotype 3a transient replicon, L159F/L320F double mutant; format: cell-based; details: for pEC50: Hepatitis C virus; for FC vs WT, HCV GT3a* L159F/L320F: fold change of EC50 vs wild type
Method: as §3, §2

HCV GT1b (transient) = HCV GT1b (transient) replicon; format: cell-based; details: Hepatitis C virus, read-out: EC50 HCV GT1b (transient)
From the text: as §2

HCV GT1a = HCV GT1a chimeric replicon; format: cell-based; details: Hepatitis C virus, read-out: EC50 HCV GT1a*
From the text: as §2

HCV GT2a replicon = assay: HCV GT2a replicon; format: cell-based; details: Hepatitis C virus, read-out: EC50 HCV GT2a replicon
From the text: as §2

HCV GT2a virus = assay: HCV GT2a virus; format: cell-based; details: Hepatitis C virus, wild type, geometric mean
From the text: as §2

HCV GT4a = HCV GT4a chimeric replicon; format: cell-based; details: Hepatitis C virus, read-out: EC50 HCV GT4a*
From the text: as §2

HCV GT5a = HCV GT5a chimeric replicon; format: cell-based; details: Hepatitis C virus, read-out: EC50 HCV GT5a*
From the text: as §2

HCV GT6a = HCV GT6a chimeric replicon; format: cell-based; details: Hepatitis C virus, read-out: EC50 HCV GT6a*
From the text: as §2

[2] = system: genotypes 1-6 of HCV, wild type; assay: Average over wild type HCV genotype assays (Table 2); format: cell-based; details: for pEC50: Hepatitis C virus, arithmetic mean +/- SEM; for potency increase vs sofosbuvir: from AVG EC50
From the text: as §2

HCV GT1b S282T = HCV GT1b S282T mutant replicon; format: cell-based; details: for pEC50: Hepatitis C virus, GT1B, read-out: EC50 HCV GT1b S282T; for FC vs WT, HCV GT1b S282T: fold change of EC50 vs wild type
From the text: as §2

HCV GT1b L159F/L320F = HCV GT1b L159F/L320F mutant replicon; format: cell-based; details: for pEC50: Hepatitis C virus, GT1B, read-out: EC50 HCV GT1b L159F/L320F; for FC vs WT, HCV GT1b L159F/L320F: fold change of EC50 vs wild type
From the text: as §2

HCV GT1a S282T = HCV GT1a S282T chimeric mutant replicon; format: cell-based; details: for pEC50: Hepatitis C virus, GT1A, read-out: EC50 HCV GT1a* S282T; for FC vs WT, HCV GT1a* S282T: fold change of EC50 vs wild type
From the text: as §2

HCV mutant strains = assay: Average over HCV mutant assays (Table 3); format: cell-based; details: for pEC50: Hepatitis C virus, read-out: AVG EC50; for potency increase vs sofosbuvir: mutant assays, from AVG EC50
From the text: as §2

HCV NS5B-21 = HCV NS5B-21 (Hepatitis C virus genotype 1b (isolate Con1) (HCV), UniProt Q9WMX2); assay: Enzyme assay, HCV NS5B-21 SPA (scintillation proximity assay); format: biochemical; details: triphosphates
Method: It is this triphosphate which is believed to be the antivirally active species. The enzyme assay described here may be used to confirm that compounds of the invention are antivirally active as the 5′-triphosphate metabolite.
The enzyme assay measures the inhibitory effect of triphosphate compounds in an HCV NS5B-21 (21-amino acid C-terminally truncated version) SPA assay (scintillation proximity assay). The assay is performed by evaluating the amount of radiolabelled ATP incorporated by HCV NS5B-21 into newly synthesized RNA using an heterogeneous biotinylated RNA template.
To determine IC50 values the compounds are tested at various concentrations in a final volume of 100 μl of reaction mixture. The reaction is stopped by addition of 0.5M EDTA solution.
The samples are transferred into flashplates precoated with streptavidin. The incorporated radioactivity is quantified using a scintillation counter (Wallac Microbeta Trilux).
The assay should include enzyme controls (about four, containing 1 μl DMSO instead of inhibitor) and background control containing all ingredients except template.
Compounds are serially diluted in DMSO on a separate dilution plate to 100× the final desired assay concentrations. […]
Incubate the plate over night and read the flash plate in the Microbeta Trilux using the protocol Flash plates H3. […]
IC50 is determined using Graphpad Prism. […]

[3] = Hepatitis C virus, GT1B, Huh-7, wild type, geometric mean, read-out: EC50 HCV GT1b (stable)
[4] = read-out: EC50 against genotype 3a
[5] = GT3A, read-out: EC50 HCV GT3a* S282T
[6] = read-out: EC50, genotype 3a S282T
[7] = GT3A, read-out: EC50 HCV GT3a* L159F/L320F
[8] = read-out: EC50, genotype 3a L159F/L320F double mutant
[9] = Hepatitis C virus, Huh-7, 72 h, Huh-Luc HCV 1b replicon, three days incubation, luciferase activity, read-out: EC50

Compound | pEC50 [1, 3] | pEC50 (HCV GT3a; GT3A, read-out: EC50 HCV GT3a*) | pEC50 (HCV GT3a; [4]) | pEC50 (HCV GT3a S282T; [5]) | pEC50 (HCV GT3a S282T; [6]) | FC vs WT, HCV GT3a* S282T (HCV GT3a S282T) | pEC50 (HCV GT3a L159F/L320F; [7]) | pEC50 (HCV GT3a L159F/L320F; [8]) | FC vs WT, HCV GT3a* L159F/L320F (HCV GT3a L159F/L320F) | pEC50 (HCV GT1b (transient)) | pEC50 (HCV GT1a) | pEC50 (HCV GT2a replicon) | pEC50 (HCV GT2a virus) | pEC50 (HCV GT4a) | pEC50 (HCV GT5a) | pEC50 (HCV GT6a) | pEC50 [2] | potency increase vs sofosbuvir [2] | pEC50 (HCV GT1b S282T) | FC vs WT, HCV GT1b S282T (HCV GT1b S282T) | other results
CC(C)OC(=O)[C@H](C)NP(=O)(OC[C@H]1O[C@@H](n2ccc(=O)[nH]c2=O)[C@@](F)(Cl)[C@@H]1O)Oc1ccccc1 (stereo partly drawn) [Example 2, (2S)-isopropyl 2-(((((2R,3R,4S,5R)-4-chloro-5-(2,4-dioxo-3,4-dihydropyrimidin-1(2H)-yl)-4-fluoro-3-hydroxytetrahydrofuran-2-yl)methoxy)(phenoxy)phosphoryl)amino)propanoate] | 7.35 | 7.34 | 7.14 | 6.91 | 6.89 | 2.7 | 7.21 | 7.21 | 1.3 | 7.36 | 7.30 | 7.64 | 7.77 | 7.23 | 7.36 | 7.24 | 7.37 | 2.7 | 6.53 | 6.8 | pEC50 ([1]; Huh-Luc HCV 1b replicon, three days incubation, luciferase activity, read-out: EC50): 7.26; pEC50 (HCV GT1b L159F/L320F): 7.15; FC vs WT, HCV GT1b L159F/L320F (HCV GT1b L159F/L320F): 1.6; pEC50 (HCV GT1a S282T): 6.52; FC vs WT, HCV GT1a* S282T (HCV GT1a S282T): 6.0; pEC50 (HCV mutant strains): 6.77; potency increase vs sofosbuvir (HCV mutant strains): 3.1
O=c1ccn([C@@H]2O[C@H](COP(=O)(O)OP(=O)(O)OP(=O)(O)O)[C@@H](O)[C@]2(F)Cl)c(=O)[nH]1 [Example 3, Lithium ((2R,3R,4 S,5R)-4-chloro-5-(2,4-dioxo-3,4-dihydropyrimidin-1(2H)-yl)-4-fluoro-3-hydroxytetrahydrofuran-2-yl)methyl triphosphate] | – | – | – | – | – | – | – | – | – | – | – | – | – | – | – | – | – | – | – | – | pIC50 (HCV NS5B-21): 6.14
COC[C@H](C)OC(=O)[C@H](C)NP(=O)(OC[C@H]1O[C@@H](n2ccc(=O)[nH]c2=O)[C@@](F)(Cl)[C@@H]1O)Oc1ccccc1 (stereo partly drawn) [Example 25] | – | – | – | – | – | – | – | – | – | – | – | – | – | – | – | – | – | – | – | – | pEC50 [1, 9]: 7.00
CC(C)OC(=O)[C@H](C)NP(=O)(OC[C@H]1O[C@@H](n2ccc(N)nc2=O)[C@@](F)(Cl)[C@@H]1O)Oc1ccccc1 (stereo partly drawn) [Example 26, (2S)-Isopropyl 2-(((((2R,3R,4S,5R)-5-(4-amino-2-oxopyrimidin-1(2H)-yl)-4-chloro-4-fluoro-3-hydroxytetrahydrofuran-2-yl)methoxy)(phenoxy)phosphoryl)amino)propanoate] | – | – | – | – | – | – | – | – | – | – | – | – | – | – | – | – | – | – | – | – | pEC50 [1, 9]: 7.07
Nc1ccn([C@@H]2O[C@H](COP(=O)(O)OP(=O)(O)OP(=O)(O)O)[C@@H](O)[C@]2(F)Cl)c(=O)n1 [Example 27, (((2R,3R,4 S, 5R)-5-(4-amino-2-oxopyrimidin-1(2H)-yl)-4-chloro-4-fluoro-3-hydroxytetrahydrofuran-2-yl)methyl)triphosphoric acid] | – | – | – | – | – | – | – | – | – | – | – | – | – | – | – | – | – | – | – | – | pIC50 (HCV NS5B-21): 7.05
CC(C)OC(=O)[C@H](C)N[P@](=O)(OC[C@H]1O[C@@H](n2ccc(=O)[nH]c2=O)[C@](C)(F)[C@@H]1O)Oc1ccccc1 [sofosbuvir, reference compound] | 7.01 | 6.89 | 6.64 | 6.28 | 6.32 | 4.0 | 6.72 | 6.72 | 1.5 | 7.09 | 6.88 | 7.32 | 7.27 | 6.66 | 6.94 | 6.75 | 6.93 | 1.0 | 6.13 | 8.8 | pEC50 (HCV GT1b L159F/L320F): 6.70; FC vs WT, HCV GT1b L159F/L320F (HCV GT1b L159F/L320F): 2.5; pEC50 (HCV GT1a S282T): 6.00; FC vs WT, HCV GT1a* S282T (HCV GT1a S282T): 7.7; pEC50 (HCV mutant strains): 6.27; potency increase vs sofosbuvir (HCV mutant strains): 1.0
